Tests used:
[1] = Arylsulfatase activity assay with 4-MUS substrate; type: biochemical
Description: The 100-fold concentrated conditioned medium (CM) derived from each transfection of CHO cells as described above was dialyzed into 50 mM HEPES, pH 8.0. The His-tagged fusion proteins were bound to a Ni-NTA resin (QIAGEN) by rotation at 4° C. over night, then washed with 50 mM HEPES (pH 8.0), 3 times. 250 mM imidazole in 50 mM HEPES, pH 8.0 was used to elute the His-tagged fusion proteins from Ni-NTA. The resins with boud material or the eluates were mixed with 10 mM 4-methylumbelliferyl-sulfate (4-MUS; a substrate for sulfatases), and 10 mM lead acetate, in a total volume of 100 μl. The reaction mixtures were incubated at 37° C. for various periods of time. Reactions were terminated by the addition of 100 μl of 0.5 M Na2CO3/NaHCO3, pH 10.7 to 20 μl of the reaction mixture. The fluorescence of 4-methylumbelliferone was measured on a Multi-Well Plate Reader CytoFluorII (PerSeptive Biosystems). The fluorescence was determined at an excitation wavelength of 360 nm and emission wavelength of 460 nm. A substrate dose response curve was performed over the concentration range of 1 to 10 mM 4-MUS.
The synthetic fluorogenic compound 4-methylumbelliferyl sulfate (4-MUS) serves as a substrate for most sulfatases, both in the lysosomal and non-lysosomal classes. CHO cells were transfected with a cDNA for HSulf-1 or HSulf-2 or a vector control. Conditioned medium was collected and incubated with nickel resin (Ni-NTA) to bind the His-tagged recombinant proteins. The bead-bound material was assayed for activity on 4-MUS. For both enzymes, hydrolysis depended on time of reaction (FIG. 15A), concentration of substrate (FIG. 15B), and amount of CM (FIG. 15C). From the substrate dose-response curves of FIG. 15B and based on estimates of Sulf protein levels in CM, we approximated Vmax for the two Sulfs to be in the range of 1000-2000 nmol per min per mg of Sulf protein. Human glucosamine-6-sulfatase has a considerably lower Vmax against 4-MUS ([…]) whereas the Vmax of human N-acetylgalactosamine-4-sulfatase (arylsulfatase B) is much higher (48000).
HSulf-1, HSulf-2 or their mutated forms (HSulf-1 ΔCC and HSulf-2 ΔCC) was purified from the conditioned medium of transfected CHO cells by binding to Ni-NTA beads. A) The bead-bound material was tested for arylsulfatase activity as a function of time against 10 mM 4-MUS substrate at pH 8. The “no-enzyme” control was based on testing conditioned medium from vector-control transfected CHO cells. No activity was detected in the absence of added substrate (not shown). […] The activity of each Sulf was determined relative to that of beads exposed to an equivalent volume of vector-control conditioned medium. The activity of HG6S was determined (24 hr incubation) relative to that of the buffer. […]

Wnt signaling = assay: TCF-luciferase (TOPFlash/FOPFlash) Wnt reporter assay in pancreatic adenocarcinoma cell lines; type: cell-based, human; conditions: for Wnt activity: 16 hours with conditioned medium of HEK 293 clones
Description: Cells were plated in 24 well plates and transfected with either 0.3 μg TOPFlash or FOPFlash and 0.01 μg Renilla control plasmid (Promega) using Fugene (Roche) according to the manufacturer's procedure. After 48 hours cells were lysed and analyzed utilizing the Dual Luciferase Reporter Assay system (Promega). Luciferase activity was normalized to control Renilla activity.
To search for evidence that endogenous expressed sulfatases in pancreatic adenocarcinoma cell lines regulate Wnt signaling, the method of gene silencing was used. An antisense cDNA against both sulfatases was transiently transfected into four different cell lines. As a control, cells were transfected with a MMP-9 antisense cDNA. Wnt signaling was quantified by TCF-luciferase activity.
HSulf-1 DCC and HSulf-2 DCC mutants are as follows: 1) cysteines 87 and 88 of HSulf-1 (designated as HSulf-1 ΔCC or HSulf-1 DCC) were changed to alanines; and cysteines 88 and 89 of HSulf-2 (designated as HSulf-2 ΔCC or HSulf-2 DCC) were changed to alanines (see Example 9, above).
The effect of conditioned medium derived from the HEK 293 cell lines on Wnt signaling was determined. Pancreatic adenocarcinoma cells were incubated for 16 hours with conditioned medium derived from the described HEK 293 clones; and the TOP/FOPflash system was used to quantify Wnt signaling.
In order to compare proliferation of BxPC3 sil413 cells and mock transfected BxPC3 cells in vitro, GFP+ (HSulf-2 positive) and GFP− (HSulf-2 negative) cells were co-cultured; and the ratio of GFP+ to GFP− cells was followed over time. […] Additionally, using sorted BxPC3 si1413 cells we examined proliferation performing BrdU incorporation experiments (FIG. 21D).

[2] = test system: pancreatic adenocarcinoma cell lines; assay: Transwell co-culture proliferation (cell counts) with HEK 293 feeder layer; type: cell-based, human; conditions: exogenous protein from 293 feeder layer
Description: Co-culture experiments were performed in transwell plates with 24-well inserts with 5 μm polycarbonate membrane pore size (Corning Incorporated). HEK 293 cells were plated in the wells as feeder layer and one day later 1-2×10^3 cells of the pancreatic adenocarcinoma cell lines were plated in the inserts. Cells were grown in DMEM supplemented with 10% fetal calf serum.
293 cells expressing either HSulf-2, HSulf-2-DCC, parental 293 or only medium alone were used as feeder layer; and pancreatic adenocarcinoma lines were grown on transwell filters. Subsequently, cell counts were followed over time.

Substance | arylsulfatase activity of cysteine-to-alanine mutants ([1]; 4-MUS, pH 8, 2 hr, mutant protein levels in CM equivalent to wild-type) | Wnt activity (Wnt signaling; CFPAC-1 cells) | Wnt activity (Wnt signaling; cell lines inhibited in proliferation) | inhibition of Wnt signaling (TCF-luciferase activity) (Wnt signaling; transient transfection, in three of the four examined pancreatic adenocarcinoma cell lines) | proliferation (cell counts over time) ([2]; BxPC-3, HS766T and L3.6sl cells) | proliferation (cell counts over time) ([2]; CFPAC-1 cells) | sulfatase activity ([1]; His-tagged fusion proteins from CHO conditioned medium, 10 mM 4-MUS, 37° C.)
HSulf-2 ΔCC: catalytically inactive HSulf-2, cysteines 88 and 89 mutated to alanines (CC88, 89AA) | Lack of the activity | did no respond | significant decrease | about 50% | inhibited | did not show any response | –
HSulf-2: Human SULF2, an 870 amino acid sulfatase protein, SEQ ID NO:06; expressed with C-terminal Myc-His tag | – | – | – | – | – | – | Time-dependent sulfatase activity was detected

— patent US8216580B2, “Sulfatases and methods of use thereof” (The Regents of the University of California, priority 2000, dated 2012)
